What follows are molecules tested against H1047R PIK3CA enzyme (Homo sapiens, UniProt P42336, H1047R) (assay: ADP-Glo Biochemical PIK3CA Kinase Assay).
Chain of H1047R PIK3CA enzyme (P42336 whole entry H1047R): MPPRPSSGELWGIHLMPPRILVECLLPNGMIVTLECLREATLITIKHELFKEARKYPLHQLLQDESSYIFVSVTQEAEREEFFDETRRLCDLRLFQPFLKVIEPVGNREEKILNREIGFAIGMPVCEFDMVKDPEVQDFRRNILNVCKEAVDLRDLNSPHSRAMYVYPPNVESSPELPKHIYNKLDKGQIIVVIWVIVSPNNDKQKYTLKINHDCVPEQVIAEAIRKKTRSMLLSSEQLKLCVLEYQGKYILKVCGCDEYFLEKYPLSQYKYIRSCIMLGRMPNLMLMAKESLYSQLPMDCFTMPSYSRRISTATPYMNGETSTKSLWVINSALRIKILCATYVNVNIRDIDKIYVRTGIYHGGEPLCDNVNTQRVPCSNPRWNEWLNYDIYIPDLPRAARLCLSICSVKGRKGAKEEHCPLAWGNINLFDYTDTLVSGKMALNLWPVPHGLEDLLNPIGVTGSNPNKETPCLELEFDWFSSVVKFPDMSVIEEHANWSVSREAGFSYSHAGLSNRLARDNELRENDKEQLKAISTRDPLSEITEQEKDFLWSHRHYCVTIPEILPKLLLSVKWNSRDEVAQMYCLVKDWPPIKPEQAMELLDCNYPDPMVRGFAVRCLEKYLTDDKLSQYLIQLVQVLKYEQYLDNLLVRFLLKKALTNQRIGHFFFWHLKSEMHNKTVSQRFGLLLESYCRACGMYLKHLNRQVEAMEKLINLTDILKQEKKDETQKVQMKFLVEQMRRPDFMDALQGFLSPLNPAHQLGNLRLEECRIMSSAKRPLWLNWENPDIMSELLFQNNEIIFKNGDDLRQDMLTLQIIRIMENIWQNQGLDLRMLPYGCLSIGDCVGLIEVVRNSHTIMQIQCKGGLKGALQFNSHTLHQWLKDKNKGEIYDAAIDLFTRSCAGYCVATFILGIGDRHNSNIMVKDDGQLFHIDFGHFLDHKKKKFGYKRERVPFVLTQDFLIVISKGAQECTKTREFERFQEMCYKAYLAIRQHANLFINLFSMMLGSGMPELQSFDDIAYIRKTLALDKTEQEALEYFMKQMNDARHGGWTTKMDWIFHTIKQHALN
Chain of H1047R PIK3CA enzyme (P27986 whole entry partner): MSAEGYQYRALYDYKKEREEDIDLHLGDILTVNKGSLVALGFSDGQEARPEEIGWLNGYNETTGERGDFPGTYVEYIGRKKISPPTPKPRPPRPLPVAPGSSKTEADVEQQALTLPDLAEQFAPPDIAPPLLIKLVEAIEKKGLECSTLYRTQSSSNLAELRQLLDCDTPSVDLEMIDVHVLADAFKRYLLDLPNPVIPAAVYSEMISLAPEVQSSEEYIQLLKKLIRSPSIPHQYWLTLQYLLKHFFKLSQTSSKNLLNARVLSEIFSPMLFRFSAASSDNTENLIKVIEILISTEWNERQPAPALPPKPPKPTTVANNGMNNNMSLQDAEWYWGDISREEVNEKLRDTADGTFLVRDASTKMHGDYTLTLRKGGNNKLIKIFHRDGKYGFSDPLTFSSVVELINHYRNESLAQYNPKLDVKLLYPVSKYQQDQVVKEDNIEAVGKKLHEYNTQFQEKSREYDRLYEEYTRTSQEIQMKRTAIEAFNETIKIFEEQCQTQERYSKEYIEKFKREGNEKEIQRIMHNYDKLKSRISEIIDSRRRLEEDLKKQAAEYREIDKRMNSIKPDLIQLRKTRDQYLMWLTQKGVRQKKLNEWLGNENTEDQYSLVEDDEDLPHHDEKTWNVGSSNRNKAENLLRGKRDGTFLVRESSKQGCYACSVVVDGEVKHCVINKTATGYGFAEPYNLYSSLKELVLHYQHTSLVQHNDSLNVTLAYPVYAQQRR

IC50 [µM]	Compound
10 to 100	O=C1NC(c2cc(F)ccc2Cl)c2c(NC(=O)[C@@H](O)c3cc(F)cc(F)c3)cc(Br)cc21 (single isomer, unassigned) [Compound I-803]
≤ 0.1	O=C(CO)Nc1cc(NC(=O)c2cc(F)cc(C(F)(F)F)c2)c2c(c1)C(=O)N[C@H]2c1cc(F)ccc1Cl [Compound I-511]
≤ 0.1	CC(C)(O)Cc1cc(NC(=O)c2cc(F)cc(C(F)(F)F)c2)c2c(c1)C(=O)NC2c1cc(F)ccc1Cl (centres unmarked) [Compound I-437]
0.5 to 1	Cc1ccccc1C1NC(=O)c2c(C(=O)N3CC(C#N)C3)ccc(NC(=O)c3nsc4ccccc34)c21 (centres unmarked) [Compound I-219]
≤ 0.1	CN(C)C(=O)OCc1cc(NC(=O)c2cc(F)cc(C(F)(F)F)c2)c2c(c1)C(=O)NC2c1cc(F)ccc1Cl (centres unmarked) [Compound I-1532]
10 to 100	O=C1NC(c2cc(F)ccc2Cl)c2c1cc(-c1ccc3ncnn3c1)cc2C1=CCNCC1 (centres unmarked) [Compound I-1997]
0.1 to 0.5	O=C1NC(C2CCCCC2)c2c(NC(=O)c3nsc4ccccc34)cccc21 (centres unmarked) [Compound I-204, N-(3-Cyclohexyl-1-oxoisoindolin-4-yl)benzo[d]isothiazole-3-carboxamide]
≤ 0.1	Cc1ccccc1C1NC(=O)c2cc(C3(O)CC3)cc(NC(=O)c3nsc4ccccc34)c21 (centres unmarked) [Compound I-315, N-[6-(1-hydroxycyclopropyl)-3-(2-methylphenyl)-1-oxo-2,3-dihydro-1H-isoindol-4-yl]-1,2-benzothiazole-3-carboxamide]
1 to 10	Cc1ccccc1C1NC(=O)c2cc(Br)cc(NC(=O)c3cc(F)cc(C4CC4)c3)c21 (centres unmarked) [Compound I-534]
≤ 0.1	Cc1ccccc1[C@@H]1NC(=O)c2cc(CO)cc(NC(=O)c3nsc4ccccc34)c21 [Compound I-306]
≤ 0.1	O=C(Nc1cc(Br)cc2c1C(c1cc(F)ccc1Cl)NC2=O)c1cc(F)cc([N+](=O)[O-])c1 (centres unmarked) [Compound I-832]
10 to 100	O=C1N[C@H](c2cc(F)ccc2Cl)c2c(NC(=O)N3C[C@H](O)c4cc(F)ccc43)cccc21 (single isomer, unassigned) [Compound I-2128]
10 to 100	O=C1NC(c2cc(F)ccc2Cl)c2c(NC(=O)N3CCC(O)C3)cc(-c3ccc4ncnn4c3)cc21 (centres unmarked) [Compound I-1718]
0.1 to 0.5	CC(C)(C(=O)O)c1cc(NC(=O)c2cc(F)cc(C(F)(F)F)c2)c2c(c1)C(=O)NC2c1cc(F)ccc1Cl (centres unmarked) [Compound I-427]
1 to 10	CNc1cc(NC(=O)N2C[C@@](O)(C(F)(F)F)c3cc(F)ccc32)c2c(c1C#N)C(=O)N[C@H]2c1cc(F)ccc1Cl (single isomer, unassigned) [Compound I-2606]
1 to 10	O=C(Nc1ccnc2c1C(c1ccccc1Cl)NC2=O)c1cc(F)cc(Cl)c1 (centres unmarked) [Compound I-171]
≤ 0.1	O=C(Nc1cc(CS(=O)(=O)Cc2cc[n+]([O-])cc2)cc2c1C(c1cc(F)ccc1Cl)NC2=O)c1cc(F)cc(C(F)(F)F)c1 (centres unmarked) [Compound I-1471]
1 to 10	O=C1NC(c2cc(F)ccc2Cl)c2c(Nc3cccc(=O)[nH]3)cc(Br)cc21 (centres unmarked) [Compound I-1974]
0.5 to 1	COC(=O)c1cc(NC(=O)c2nsc3ccccc23)c2c(c1)C(=O)NC2c1ccccc1C (centres unmarked) [Compound I-314]
10 to 100	O=C1N[C@H](c2cc(F)ccc2Cl)c2c(NC(=O)N3C[C@](O)(C(F)(F)F)c4cc(F)ccc43)cc(C3COC3)cc21 (single isomer, unassigned) [Compound I-2653]
1 to 10	O=C1N[C@H](c2cc(F)ccc2Cl)c2c1cc(-c1ccc3ncnn3c1)cc2S(=O)(=O)Cc1ccccc1 (single isomer, unassigned) [Compound I-1905]
0.1 to 0.5	O=C1NC(c2ccccc2Cl)c2c(NC(=O)c3nsc4ccccc34)cc(-c3cn[nH]c3)nc21 (centres unmarked) [Compound I-94, N-(5-(2-Chlorophenyl)-7-oxo-2-(1H-pyrazol-4-yl)-6,7-dihydro-5H-pyrrolo[3,4-b]pyridin-4-yl)benzo[d]isothiazole-3-carboxamide]
10 to 100	Cc1ccccc1[C@@H]1NC(=O)c2cccc(NC(=O)c3csc4c(F)cccc34)c21 [Compound I-37]

— patent US12581252B2, “Substituted pyrrolo[3,4-b]pyridines as PI3K-α inhibitors” (Relay Therapeutics, Inc., priority 2020, dated 2026)
